Measured values as given in ChEMBL document CHEMBL1148579, “Influence of various central moieties on the hypolipidemic properties of long hydrocarbon chain diols and diacids” (J Med Chem, 2006).
Values belong to the compound of their own block, whether it stands above or below them.

Legend:
Rattus norvegicus [1] = assay: Activity against high density lipoprotein cholesterol level in obese female Zucker rat serum after 1 week at 100 mg/kg (percent change from pre-treatment); format: functional
Hepatocyte = assay: Inhibition of lipid synthesis in primary rat hepatocytes by incorporation radiolabeled acetate into cellular lipids; format: functional, cell-based, Sprague-Dawley; conditions: Rattus norvegicus, Sprague-Dawley, Hepatocyte; read-out: IC50
Rattus norvegicus [2] = assay: Activity against non high density lipoprotein cholesterol level in obese female Zucker rat serum after 1 week at 100 mg/kg (percent change from pre-treatment); format: functional
Rattus norvegicus [3] = assay: Activity against non high density lipoprotein cholesterol level in obese female Zucker rat serum after 2 weeks at 100 mg/kg (percent change from pre-treatment); format: functional
Rattus norvegicus [4] = assay: Activity against high density lipoprotein cholesterol level in obese female Zucker rat serum after 2 weeks at 100 mg/kg (percent change from pre-treatment); format: functional
Rattus norvegicus [5] = assay: Activity against triglyceride level in obese female Zucker rat serum after 1 week at 100 mg/kg (percent change from pre-treatment); format: functional
Rattus norvegicus [6] = assay: Activity against triglyceride level in obese female Zucker rat serum after 2 weeks at 100 mg/kg (percent change from pre-treatment); format: functional
Rattus norvegicus [7] = assay: AUC (infinity) of the metabolite 2,2,12,12-tetramethyl-7-oxotridecanedioic acid in male Wistar rat administered with the parent compound at 100 mg/kg, po; format: ADME, organism-based, Plasma; parameters: time infinity, dose 100 mg/kg, route oral; conditions: in vivo
Rattus norvegicus [8] = assay: Volume of distribution of the metabolite 2,2,12,12-tetramethyl-7-oxotridecanedioic acid in male Wistar rat administered with the parent compound at 100 mg/kg, po; format: ADME, organism-based; parameters: dose 100 mg/kg, route oral; conditions: in vivo
Rattus norvegicus [9] = assay: Clearance of the metabolite 2,2,12,12-tetramethyl-7-oxotridecanedioic acid in male Wistar rat administered with the parent compound at 100 mg/kg, po; format: ADME, organism-based; parameters: dose 100 mg/kg, route oral; conditions: in vivo
Rattus norvegicus [10] = assay: Half life of the metabolite 7-hydroxy-2,2,12,12-tetramethyltridecanedioic acid in male Wistar rat administered with the parent compound at 100 mg/kg, po; format: ADME, organism-based; parameters: dose 100 mg/kg, route oral; conditions: in vivo
Rattus norvegicus [11] = assay: Cmax of the metabolite 7-hydroxy-2,2,12,12-tetramethyltridecanedioic acid in male Wistar rat administered with the parent compound at 100 mg/kg, po; format: ADME, organism-based; parameters: dose 100 mg/kg, route oral; conditions: in vivo
Rattus norvegicus [12] = assay: Tmax of the metabolite 7-hydroxy-2,2,12,12-tetramethyltridecanedioic acid in male Wistar rat administered with the parent compound at 100 mg/kg, po; format: ADME, organism-based; parameters: dose 100 mg/kg, route oral; conditions: in vivo
Rattus norvegicus [13] = assay: AUC of the metabolite 7-hydroxy-2,2,12,12-tetramethyltridecanedioic acid in male Wistar rat administered with the parent compound at 100 mg/kg, po; format: ADME, organism-based, Plasma; parameters: dose 100 mg/kg, route oral; conditions: in vivo
Rattus norvegicus [14] = assay: AUC (infinity) of the metabolite 7-hydroxy-2,2,12,12-tetramethyltridecanedioic acid in male Wistar rat administered with the parent compound at 100 mg/kg, po; format: ADME, organism-based, Plasma; parameters: time infinity, dose 100 mg/kg, route oral; conditions: in vivo
Rattus norvegicus [15] = assay: Volume of distribution of the metabolite 7,13-dihydroxy-2,2,12,12-tetramethyltridecanoic acid in male Wistar rat administered with the parent compound at 100 mg/kg, po; format: ADME, organism-based; parameters: dose 100 mg/kg, route oral; conditions: in vivo
Rattus norvegicus [16] = assay: Clearance of the metabolite 7,13-dihydroxy-2,2,12,12-tetramethyltridecanoic acid in male Wistar rat administered with the parent compound at 100 mg/kg, po; format: ADME, organism-based; parameters: dose 100 mg/kg, route oral; conditions: in vivo
Rattus norvegicus [17] = assay: Half life of the metabolite 2,2,12,12-tetramethyl-7-oxotridecanedioic acid in male Wistar rat administered with the parent compound at 100 mg/kg, po; format: ADME, organism-based; parameters: dose 100 mg/kg, route oral; conditions: in vivo
Rattus norvegicus [18] = assay: Tolerability of compound upto 2000 mg/kg; format: organism-based; parameters: dose 2000 mg/kg; conditions: in vivo
Rattus norvegicus [19] = assay: Clearance of the metabolite 13-hydroxy-2,2,12,12-tetramethyl-7-oxotridecanoic acid in male Wistar rat administered with the parent compound at 100 mg/kg, po; format: ADME, organism-based; parameters: dose 100 mg/kg, route oral; conditions: in vivo
Rattus norvegicus [20] = assay: Half life of the metabolite 7,13-dihydroxy-2,2,12,12-tetramethyltridecanoic acid in male Wistar rat administered with the parent compound at 100 mg/kg, po; format: ADME, organism-based; parameters: dose 100 mg/kg, route oral; conditions: in vivo
Rattus norvegicus [21] = assay: Cmax of the metabolite 7,13-dihydroxy-2,2,12,12-tetramethyltridecanoic acid in male Wistar rat administered with the parent compound at 100 mg/kg, po; format: ADME, organism-based; parameters: dose 100 mg/kg, route oral; conditions: in vivo
Rattus norvegicus [22] = assay: Tmax of the metabolite 7,13-dihydroxy-2,2,12,12-tetramethyltridecanoic acid in male Wistar rat administered with the parent compound at 100 mg/kg, po; format: ADME, organism-based; parameters: dose 100 mg/kg, route oral; conditions: in vivo
Rattus norvegicus [23] = assay: AUC of the metabolite 7,13-dihydroxy-2,2,12,12-tetramethyltridecanoic acid in male Wistar rat administered with the parent compound at 100 mg/kg, po; format: ADME, organism-based, Plasma; parameters: dose 100 mg/kg, route oral; conditions: in vivo
Rattus norvegicus [24] = assay: AUC (infinity) of the metabolite 7,13-dihydroxy-2,2,12,12-tetramethyltridecanoic acid in male Wistar rat administered with the parent compound at 100 mg/kg, po; format: ADME, organism-based, Plasma; parameters: time infinity, dose 100 mg/kg, route oral; conditions: in vivo
Rattus norvegicus [25] = assay: Cmax of the metabolite 2,2,12,12-tetramethyl-7-oxotridecanedioic acid in male Wistar rat administered with the parent compound at 100 mg/kg, po; format: ADME, organism-based; parameters: dose 100 mg/kg, route oral; conditions: in vivo
Rattus norvegicus [26] = assay: Tmax of the metabolite 2,2,12,12-tetramethyl-7-oxotridecanedioic acid in male Wistar rat administered with the parent compound at 100 mg/kg, po; format: ADME, organism-based; parameters: dose 100 mg/kg, route oral; conditions: in vivo
Rattus norvegicus [27] = assay: AUC of the metabolite 2,2,12,12-tetramethyl-7-oxotridecanedioic acid in male Wistar rat administered with the parent compound at 100 mg/kg, po; format: ADME, organism-based, Plasma; parameters: dose 100 mg/kg, route oral; conditions: in vivo
Rattus norvegicus [28] = assay: AUC of the metabolite 13-hydroxy-2,2,12,12-tetramethyl-7-oxotridecanoic acid in male Wistar rat administered with the parent compound at 100 mg/kg, po; format: ADME, organism-based, Plasma; parameters: dose 100 mg/kg, route oral; conditions: in vivo
Rattus norvegicus [29] = assay: AUC (infinity) of the metabolite 13-hydroxy-2,2,12,12-tetramethyl-7-oxotridecanoic acid in male Wistar rat administered with the parent compound at 100 mg/kg, po; format: ADME, organism-based, Plasma; parameters: time infinity, dose 100 mg/kg, route oral; conditions: in vivo
Rattus norvegicus [30] = assay: Volume of distribution of the metabolite 13-hydroxy-2,2,12,12-tetramethyl-7-oxotridecanoic acid in male Wistar rat administered with the parent compound at 100 mg/kg, po; format: ADME, organism-based; parameters: dose 100 mg/kg, route oral; conditions: in vivo
Rattus norvegicus [31] = assay: Volume of distribution of the metabolite 7-hydroxy-2,2,12,12-tetramethyltridecanedioic acid in male Wistar rat administered with the parent compound at 100 mg/kg, po; format: ADME, organism-based; parameters: dose 100 mg/kg, route oral; conditions: in vivo
Rattus norvegicus [32] = assay: Clearance of the metabolite 7-hydroxy-2,2,12,12-tetramethyltridecanedioic acid in male Wistar rat administered with the parent compound at 100 mg/kg, po; format: ADME, organism-based; parameters: dose 100 mg/kg, route oral; conditions: in vivo
Rattus norvegicus [33] = assay: Half life of the metabolite 13-hydroxy-2,2,12,12-tetramethyl-7-oxotridecanoic acid in male Wistar rat administered with the parent compound at 100 mg/kg, po; format: ADME, organism-based; parameters: dose 100 mg/kg, route oral; conditions: in vivo
Rattus norvegicus [34] = assay: Cmax of the metabolite 13-hydroxy-2,2,12,12-tetramethyl-7-oxotridecanoic acid in male Wistar rat administered with the parent compound at 100 mg/kg, po; format: ADME, organism-based; parameters: dose 100 mg/kg, route oral; conditions: in vivo
Rattus norvegicus [35] = assay: Tmax of the metabolite 13-hydroxy-2,2,12,12-tetramethyl-7-oxotridecanoic acid in male Wistar rat administered with the parent compound at 100 mg/kg, po; format: ADME, organism-based; parameters: dose 100 mg/kg, route oral; conditions: in vivo
Rattus norvegicus [36] = assay: Tolerability of compound upto 5000 mg/kg; format: ADME, organism-based; parameters: dose 5000 mg/kg; conditions: in vivo
[37] = Half life in male Wistar rat at 100 mg/kg, po; format: ADME, organism-based; parameters: dose 100 mg/kg, route oral; conditions: in vivo
[38] = Cmax in male Wistar rat at 100 mg/kg, po; format: ADME, organism-based; parameters: dose 100 mg/kg, route oral; conditions: in vivo
[39] = Tmax in male Wistar rat at 100 mg/kg, po; format: ADME, organism-based; parameters: dose 100 mg/kg, route oral; conditions: in vivo
[40] = AUC in male Wistar rat at 100 mg/kg, po; format: ADME, organism-based; parameters: dose 100 mg/kg, route oral; conditions: plasma
[41] = AUC (infinity) in male Wistar rat at 100 mg/kg, po; format: ADME, organism-based; parameters: time infinity, dose 100 mg/kg, route oral; conditions: plasma
Rattus norvegicus [42] = assay: Volume of distribution in male Wistar rat at 100 mg/kg, po; format: ADME, organism-based; parameters: dose 100 mg/kg, route oral; conditions: in vivo
[43] = Clearance in male Wistar rat at 100 mg/kg, po; format: ADME, organism-based; parameters: dose 100 mg/kg, route oral; conditions: in vivo

AUC (Rattus norvegicus [7]): 344.9 µg·h/mL | Vdss (Rattus norvegicus [8]): 5.6319 L/kg | CL (Rattus norvegicus [9]): 86.8 mL/h | T1/2 (Rattus norvegicus [10]): 16.9 h | Cmax (Rattus norvegicus [11]): 40600 ng/mL | Tmax (Rattus norvegicus [12]): 6 h | AUC (Rattus norvegicus [13]): 703.3 µg·h/mL | AUC (Rattus norvegicus [14]): 1176.1 µg·h/mL | Vdss (Rattus norvegicus [15]): 1.5332 L/kg | CL (Rattus norvegicus [16]): 69 mL/h | T1/2 (Rattus norvegicus [17]): 13.5 h | CL (Rattus norvegicus [19]): 747.9 mL/h | T1/2 (Rattus norvegicus [20]): 3.1 h | Cmax (Rattus norvegicus [21]): 21400 ng/mL | Tmax (Rattus norvegicus [22]): 6 h | AUC (Rattus norvegicus [23]): 289.9 µg·h/mL | AUC (Rattus norvegicus [24]): 291.6 µg·h/mL | Cmax (Rattus norvegicus [25]): 14900 ng/mL | Tmax (Rattus norvegicus [26]): 6 h | AUC (Rattus norvegicus [27]): 230.3 µg·h/mL | AUC (Rattus norvegicus [28]): 26.7 µg·h/mL | AUC (Rattus norvegicus [29]): 26.8 µg·h/mL | Vdss (Rattus norvegicus [30]): 13.6709 L/kg | Vdss (Rattus norvegicus [31]): 2.0721 L/kg | CL (Rattus norvegicus [32]): 28.4 mL/h | T1/2 (Rattus norvegicus [33]): 2.5 h | Cmax (Rattus norvegicus [34]): 2000 ng/mL | Tmax (Rattus norvegicus [35]): 0.5 h
Structure (SMILES): CC(C)(CO)CCCCC(=O)CCCCC(C)(C)CO
Activity (Rattus norvegicus [1]): 111% | IC50 (Hepatocyte): 1.5 µM | Activity (Rattus norvegicus [2]): -23% | Activity (Rattus norvegicus [3]): -10% | Activity (Rattus norvegicus [4]): 126% | Activity (Rattus norvegicus [5]): -54% | Activity (Rattus norvegicus [6]): -29% | Activity (Rattus norvegicus [18]): Active

Structure (SMILES): CC(C)(CO)CCCCSCCCCC(C)(C)CO
Activity (Rattus norvegicus [1]): 141% | IC50 (Hepatocyte): 18 µM | Activity (Rattus norvegicus [2]): -11% | Activity (Rattus norvegicus [3]): 9% | Activity (Rattus norvegicus [4]): 153% | Activity (Rattus norvegicus [5]): -37% | Activity (Rattus norvegicus [6]): -56% | Activity (Rattus norvegicus [36]): Active

half-life [37]: 16.9 h | Cmax [38]: 40600 ng/mL | Tmax [39]: 6 h | AUC [40]: 703 µg·h/mL | AUC(0-inf) [41]: 1180 µg·h/mL | Vdss (Rattus norvegicus [42]): 2.0721 L/kg | CL/F [43]: 0.473 mL/min
Structure (SMILES): CC(C)(CCCCC(O)CCCCC(C)(C)C(=O)O)C(=O)O
Activity (Rattus norvegicus [1]): 57% | IC50 (Hepatocyte): 4.7 µM | Activity (Rattus norvegicus [2]): -6% | Activity (Rattus norvegicus [3]): -41% | Activity (Rattus norvegicus [4]): 50% | Activity (Rattus norvegicus [5]): -32% | Activity (Rattus norvegicus [6]): -59%
